Results from US20080318961A1, “Drugs comprising chymase inhibitors and ACE inhibitors as effective ingredients” (Teijin, priority 2001, published 2008).
Structures can show the parent of a compound that is named as a salt. Where two headings read alike, the source gives them in different places.

Key:
[1] = tested on: hamster myocardial infarction models; settings: Life Sci. 2002, Vol. 71, p. 437; cited from earlier work
[2] = tested on: hamster chymase; assay: Accelerated vascular permeation model by intradermal injection of hamster chymase; type: in vivo, Syrian hamsters; settings: 0.1% (w/w) in feed for 5 days; Evans Blue, 30 minutes after intradermal hamster chymase
Protocol: Compound No. 33 was mixed with powder feed to a content of 0.1% (w/w) to prepare a feed which was given to hamsters (Syrian hamsters, male, 7-week-old) for 5 days. Under ether anesthesia, the hamster backs were shaved and the hamster chymase was intradermally injected (hamster chymase: 1, 0.3, 0.1 μg/site; vehicle: 0.15 M NaCl, 0.1 mg/ml BSA, 10 mM Pi-Na, pH 7.0). Evans Blue (1% (w/v) solution, 5 ml/kg) was intravenously administered just prior to the intradermal injection, and the blue spots produced by chymase intradermal injection were quantified. Specifically, the hamsters were bled to death from the abdominal aorta 30 minutes after intradermal injection, and the skin was sampled using the blueing spots as an index. The sampled skin was placed in a glass test tube, the dye was extracted with 2 ml of EB extract (acetone:0.3% Na2SO4=7:3), and the dye leakage was measured by colorimetry using a spectrophotometer (620 nm).

[3] = target: T1, human mast cell chymase (Homo sapiens, UniProt P23946); assay: Recombinant human mast cell chymase enzymatic activity inhibition; type: biochemical
T1 construct: made in house; host or cells: insect cells (Th5), recombinant baculovirus
T1 sequence (P23946 22-247): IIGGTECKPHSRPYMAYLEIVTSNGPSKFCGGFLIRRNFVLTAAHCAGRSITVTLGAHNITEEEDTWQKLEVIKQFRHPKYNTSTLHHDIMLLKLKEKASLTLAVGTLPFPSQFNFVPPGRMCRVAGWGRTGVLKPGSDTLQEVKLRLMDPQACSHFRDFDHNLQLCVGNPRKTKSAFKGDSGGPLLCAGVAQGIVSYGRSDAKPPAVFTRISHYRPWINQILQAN
Protocol: Specifically, Heparin Sepharose (Pharmacia) was used for purification from a culture supernatant of insect cells (Th5) infected with recombinant baculovirus containing cDNA coding for human mast cell chymase.
The time-related change in absorbance at 405 nm was measured to determine the inhibiting activity.

[4] = tested on: Human chymase-overexpressing mice (TGM); assay: Angiotensin-elicited blood pressure increase model using chymase-overexpressing mice; type: in vivo; settings: continuous angiotensin I infusion; for suppression of vasopressor effect (blood pressure): compared to control group, combination normal from 10th day, P<0.05
Protocol: Human chymase-overexpressing mice (hereinafter abbreviated as “TGM”) created by introduction of the human chymase gene with an angiotensin II-producing function were used as the model animals. Specifically, 8- to 10-week-old TGM mice were used, and angiotensin I was continuously infused with a microosmostic pump embedded under the mouse skin (70 μg/kg/min) to create continuous hypertensive mouse models. The continuous infusion of angiotensin I was confirmed to elicit a vasopressor response of about 30 mmHg in the TGM (n=6) with respect to the wild type (n=8), while depressor action was examined in groups administered a chymase inhibitor (Compound No. 33, 0.1% diet, n=7), an ACE inhibitor (temocapril hydrochloride, 2.0 mg/kg/day, n=6), an angiotensin receptor blocker (ARB) (Valsartan, 14 mg/kg/day, n=7) and a chymase inhibitor and ACE inhibitor simultaneously (Compound No. 33, 0.1% diet, and temocapril hydrochloride, 2.0 mg/kg/day, n=6). The letter “n” indicates the number of individuals. […] […].

[5] = target: hamster chymase 1 (Mesocricetus auratus, UniProt O08732); assay: Chymase-inhibiting activity using hamster chymase; type: biochemical; settings: Compound No. 33; read-out: Inhibition constant, Hamster chymase
Protocol: After adding 2 μl of a DMSO solution containing a compound of the invention to 50 μl of Buffer A (0.5-3.0 M NaCl, 50 mM Tris-HCl, pH 8.0) containing 1-5 ng of the active form human mast cell chymase obtained in Example 1, there was added 50 μl of Buffer A containing 0.5 mM succinyl-alanyl-histidyl-prolyl-phenylalanylparanitroanilide (Bachem) as a substrate, and reaction was conducted at room temperature for 5 minutes. The time-related change in absorbance at 405 nm was measured to determine the inhibiting activity.
Hamster chymase was obtained from a crude product extracted from hamster tongue tissue with an acidic buffer solution and subsequently purified with a Phenyl-Sepharose column (elution: 0.15 M NaCl, 50 mM sodium phosphate, pH 6.5, 50% ethylene glycol) and a Heparin-Cellulofine column (elution: 0.5-2.0 M NaCl). The protein was identified as hamster chymase 1 based on the N-terminal amino acid sequence, and activity inhibition was measured by the same method as for the human chymase.

[6] = target: T2, Trypsin (Bos taurus, UniProt P00760); assay: Enzyme selectivity: trypsin inhibition; type: biochemical; settings: Compound No. 33; read-out: Inhibition constant, Trypsin
T2 construct: gene PRSS1
T2 sequence (P00760 24-246): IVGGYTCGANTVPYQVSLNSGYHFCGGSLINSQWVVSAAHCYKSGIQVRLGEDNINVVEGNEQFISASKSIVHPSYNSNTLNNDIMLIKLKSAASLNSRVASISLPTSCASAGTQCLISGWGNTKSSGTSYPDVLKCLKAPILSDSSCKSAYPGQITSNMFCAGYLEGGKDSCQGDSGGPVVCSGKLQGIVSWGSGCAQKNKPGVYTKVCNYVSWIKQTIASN

[7] = target: Mouse chymase; assay: Enzyme selectivity: mouse chymase inhibition; type: biochemical; settings: Compound No. 33; read-out: Inhibition constant, Mouse chymase
[8] = Blood drug concentrations upon oral administration to hamsters; type: in vivo; settings: hamster, serum, 0.1% (w/w) in feed for 5 days, mean±S.E., N=4, read-out: hamster serum concentration of the parent drug
Protocol: The chymase inhibitor designated as Compound No. 33 was mixed with MF powder feed to a content of 0.1% (w/w) to prepare a hamster feed which was given to hamsters for 5 days. Blood was sampled from the abdominal aorta under ether anesthesia, the serum was extracted, and the serum compound concentrations were measured by high-performance liquid chromatography.

[9] = target: Human tryptase (Homo sapiens, UniProt Q15661); assay: Enzyme selectivity: human tryptase inhibition; type: biochemical; settings: Compound No. 33; read-out: Inhibition constant, Human tryptase
[10] = target: Chymotrypsin (Bos taurus, UniProt P00766); assay: Enzyme selectivity: chymotrypsin inhibition; type: biochemical; settings: Compound No. 33; read-out: Inhibition constant, Chymotrypsin
[11] = tested on: canine myocardial infarction models; settings: 75th Annual Meeting of the Japanese Pharmacological Society; cited from earlier work
[12] = tested on: chymase; settings: WO00/51640, J. Med. Chem., 2001, Vol. 44, p. 1286; cited from earlier work
[13] = stated in parentheses for Compounds A and B, read-out: human chymase IC50 (reference compounds)
[14] = recombinant active form human mast cell chymase, room temperature 5 minutes, absorbance 405 nm, read-out: IC50, human mast cell chymase inhibiting activity

Human tryptase, sequence (Q15661 31-275): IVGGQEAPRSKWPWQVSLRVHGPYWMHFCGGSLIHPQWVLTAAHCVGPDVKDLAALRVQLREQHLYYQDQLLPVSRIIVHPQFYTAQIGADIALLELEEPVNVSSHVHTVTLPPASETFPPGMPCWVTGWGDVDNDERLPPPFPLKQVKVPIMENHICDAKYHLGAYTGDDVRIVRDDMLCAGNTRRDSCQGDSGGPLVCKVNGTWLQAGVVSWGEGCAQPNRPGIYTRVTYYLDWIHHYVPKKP
hamster chymase 1, sequence (O08732 entry or part of it): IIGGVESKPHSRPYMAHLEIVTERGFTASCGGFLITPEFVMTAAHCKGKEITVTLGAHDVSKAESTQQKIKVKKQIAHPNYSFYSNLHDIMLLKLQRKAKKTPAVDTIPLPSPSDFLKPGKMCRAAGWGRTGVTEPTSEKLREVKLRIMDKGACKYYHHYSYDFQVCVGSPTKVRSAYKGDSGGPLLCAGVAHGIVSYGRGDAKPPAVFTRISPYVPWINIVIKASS

CCOc1ccccc1CC1C(=O)N(C(=O)NC(c2ccc(C)cc2)c2ccc(C)cc2)C1Oc1ccc(C(=O)O)cc1 (stereo not shown) [4-[1-{[bis(4-methylphenyl)methyl]carbamoyl}-3-(2-ethoxybenzyl)-4-oxoazetidin-2-yloyl]benzoic acid]
effect when administered alone to hamster myocardial infarction models [1]: exhibit an effect

O=C1CN(c2ccc(Cl)cc2)C(=O)N1S(=O)(=O)c1ccc(Cl)cc1 [Compound A, reference compound]
dye leakage (accelerated vascular permeation) [2]: no clear suppressing action | IC50 [3, 13]: 0.009 µM

[O-][S+](Cc1ccc(Cl)cc1)c1nnc(OCc2ccc(Cl)cc2)c2nccn12 (stereo not shown) [Compound B, reference compound]
dye leakage (accelerated vascular permeation) [2]: no clear suppressing action | IC50 [3, 13]: 0.03 µM

O=C(O)CCCSc1nc2ccccc2n1Cc1cccc2ccccc12 [Compound No. 33]
suppression of cardiac hypertrophy [4]: no notable suppression | suppression of vasopressor effect (blood pressure) [4]: no notable suppression | Ki [5]: 0.0306 ± 0.0038 µM | Ki [6]: > 10 µM | Ki [7]: 0.0734 ± 0.0242 µM | dye leakage (accelerated vascular permeation) [2]: decrease in dye leakage | concentration at 5 days [8]: 7.89 ± 1.09 µM | Ki ([3]; Compound No. 33, read-out: Inhibition constant, Human chymase): 0.0062 ± 0.0022 µM | IC50 [3, 14]: 0.01 to 0.1 µM | Ki [9]: > 10 µM | Ki [10]: > 10 µM

CCCCC(=O)N(Cc1ccc(-c2ccccc2-c2nnn[nH]2)cc1)[C@H](C(=O)O)C(C)C [Valsartan]
suppression of cardiac hypertrophy [4]: no notable suppression

Cc1ccc2c(c1)c(Cn1c(SCCCC(=O)O)nc3ccccc31)cn2C [compound 6]
IC50 [3, 14]: 0.01 to 0.1 µM

Cn1cc(Cn2c(SCCCC(=O)O)nc3ccccc32)c2c(Cl)cccc21 [compound 9]
IC50 [3, 14]: 0.01 to 0.1 µM

Cn1cc(Cn2c(SCCCC(=O)O)nc3ccccc32)c2c(F)cccc21 [compound 10]
IC50 [3, 14]: 0.01 to 0.1 µM

O=C(O)CCCSc1nc2ccccc2n1Cc1csc2ccccc12 [compound 20]
IC50 [3, 14]: 0.01 to 0.1 µM

O=C(O)CCCSc1nc2ccccc2n1Cc1csc2ccc(Cl)cc12 [compound 22]
IC50 [3, 14]: 0.01 to 0.1 µM

Cc1ccc2scc(Cn3c(SCCCC(=O)O)nc4ccccc43)c2c1 [compound 24]
IC50 [3, 14]: 0.01 to 0.1 µM

O=C(O)CCCSc1nc2ccccc2n1Cc1csc2cccc(Cl)c12 [compound 27]
IC50 [3, 14]: 0.01 to 0.1 µM

Cc1cc(C)c2c(Cn3c(SCCCC(=O)O)nc4ccccc43)csc2c1 [compound 31]
IC50 [3, 14]: 0.01 to 0.1 µM

COc1ccc2c(c1)nc(SCCCC(=O)O)n2Cc1cn(C)c2cccc(Cl)c12 [compound 45]
IC50 [3, 14]: 0.01 to 0.1 µM

COc1ccc2c(c1)nc(SCCCC(=O)O)n2Cc1csc2ccccc12 [compound 56]
IC50 [3, 14]: 0.01 to 0.1 µM

COc1ccc2c(c1)nc(SCCCC(=O)O)n2Cc1csc2cccc(C)c12 [compound 62]
IC50 [3, 14]: 0.01 to 0.1 µM

N#Cc1ccc2c(c1)nc(SCCCC(=O)O)n2Cc1csc2ccccc12 [compound 92]
IC50 [3, 14]: 0.01 to 0.1 µM

Cc1ccc2c(c1)nc(SCCCC(=O)O)n2Cc1csc2ccccc12 [compound 128]
IC50 [3, 14]: 0.01 to 0.1 µM

Cc1cc2nc(SCCCC(=O)O)n(Cc3cn(C)c4ccccc34)c2cc1C [compound 182]
IC50 [3, 14]: 0.01 to 0.1 µM

Cc1cc2nc(SCCCC(=O)O)n(Cc3cn(C)c4cccc(C)c34)c2cc1C [compound 187]
IC50 [3, 14]: 0.01 to 0.1 µM

Cc1cc2nc(SCCCC(=O)O)n(Cc3cn(C)c4cccc(Cl)c34)c2cc1C [compound 189]
IC50 [3, 14]: 0.01 to 0.1 µM

Cc1cc2nc(SCCCC(=O)O)n(Cc3csc4ccccc34)c2cc1C [compound 200]
IC50 [3, 14]: 0.01 to 0.1 µM

Cc1cc2nc(SCCCC(=O)O)n(Cc3csc4ccc(Cl)cc34)c2cc1C [compound 202]
IC50 [3, 14]: 0.01 to 0.1 µM

Cc1ccc2scc(Cn3c(SCCCC(=O)O)nc4cc(C)c(C)cc43)c2c1 [compound 204]
IC50 [3, 14]: 0.01 to 0.1 µM

Cc1cc2nc(SCCCC(=O)O)n(Cc3csc4cccc(C)c34)c2cc1C [compound 206]
IC50 [3, 14]: 0.01 to 0.1 µM

COc1ccc2nc(SCCCC(=O)O)n(Cc3csc4ccc(C)cc34)c2c1 [compound 240]
IC50 [3, 14]: 0.01 to 0.1 µM

COc1ccc2nc(SCCCC(=O)O)n(Cc3csc4cccc(C)c34)c2c1 [compound 242]
IC50 [3, 14]: 0.01 to 0.1 µM

O=CNc1cnc(-c2ccccc2)n(CC(=O)NC(Cc2ccccc2)C(=O)C(=O)CCCOc2ccccn2)c1=O (stereo not shown) [formula (III-I)]
efficacy when orally administered to canine myocardial infarction models [11]: efficacious

COC(=O)c1ccc2oc(C(=O)C(Cc3ccccc3)NC(=O)Cn3c(-c4ccccc4OC)ncc(N)c3=O)nc2c1 (stereo not shown) [formula (IV-I)]
chymase inhibiting activity by oral administration to mouse allergy models [12]: exhibit chymase inhibiting activity

CCOC(=O)[C@H](CCc1ccccc1)N[C@H]1CS[C@H](c2cccs2)CN(CC(=O)O)C1=O [temocapril hydrochloride]
suppression of cardiac hypertrophy [4]: no notable suppression | suppression of vasopressor effect (blood pressure) [4]: no notable suppression
